Measurements as given in PubChem BioAssay (NCI).
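Method: 48-hour compound exposure of cells in 96-well plates, five concentrations, linear interpolation of endpoints. GI50 marks 50% less growth. At the TGI there is no net growth.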

Legend:
Assay in all cases: inhibition of tumour cell growth, NCI panel, 48 h
[1] = tested on: COLO 205 colon
[2] = tested on: CAKI-1 renal
[3] = tested on: U251 CNS
[4] = tested on: HOP-92 NSCLC
[5] = tested on: NCI-H522 lung
[6] = tested on: CCRF-CEM leukemia
[7] = tested on: PC-3 prostate
[8] = tested on: SW-620 colon
[9] = tested on: OVCAR-4 ovarian
[10] = tested on: HOP-62 NSCLC
[11] = tested on: NCI-H23 lung
[12] = tested on: EKVX NSCLC
[13] = tested on: 786-0 renal
[14] = tested on: ACHN renal
[15] = tested on: A549 NSCLC
[16] = tested on: SN12C renal
[17] = tested on: SK-OV-3 ovarian
[18] = tested on: UACC-62 melanoma
[19] = tested on: BT-549 breast
[20] = tested on: HS 578T breast
[21] = tested on: NCI-H226 lung
[22] = tested on: MALME-3M melanoma
[23] = tested on: DU-145 prostate
[24] = tested on: OVCAR-5 ovarian
[25] = tested on: MDA-MB-435
[26] = tested on: HCT-116 colon
[27] = tested on: OVCAR-8 ovarian
[28] = tested on: T-47D breast
[29] = tested on: IGROV1 ovarian
[30] = tested on: RPMI-8226 leukemia
[31] = tested on: SK-MEL-5 melanoma
[32] = tested on: K-562 leukemia
[33] = tested on: SK-MEL-2 melanoma
[34] = tested on: HCT-15 colon
[35] = tested on: TK-10 renal
[36] = tested on: MDA-MB-231 breast
[37] = tested on: OVCAR-3 ovarian
[38] = tested on: SF-268 CNS
[39] = tested on: SR leukemia
[40] = tested on: SNB-19 CNS
[41] = tested on: LOX IMVI melanoma
[42] = tested on: M14 melanoma
[43] = tested on: SF-539 CNS
[44] = tested on: RXF 393 renal
[45] = tested on: SNB-75 CNS
[46] = tested on: UO-31 renal
[47] = tested on: KM12 colon
[48] = tested on: HCC-2998 colon
[49] = tested on: SK-MEL-28 melanoma
[50] = tested on: SF-295 CNS
[51] = tested on: NCI/ADR-RES ovarian
[52] = tested on: NCI-H460 lung
[53] = tested on: A498 renal
[54] = tested on: MCF7 breast
[55] = tested on: HT29 colon
[56] = tested on: UACC-257 melanoma
[57] = tested on: HL-60(TB) leukemia

O=[N+]([O-])c1ccc(Sc2cccc[n+]2[O-])c2nonc12
GI50 [1]: 949 nM | TGI [1]: 2510 nM | GI50 [2]: 4.85 µM | TGI [2]: 15.4 µM | GI50 [3]: 3.56 µM | TGI [3]: 17.6 µM | GI50 [4]: 5450 nM | TGI [4]: 23.7 µM | GI50 [5]: 1780 nM | TGI [5]: 3790 nM | GI50 [6]: 1420 nM | GI50 [7]: 2600 nM | TGI [7]: 13 µM | GI50 [8]: 1650 nM | TGI [8]: 3410 nM | GI50 [9]: 3610 nM | TGI [9]: 13.6 µM | GI50 [10]: 28 µM | TGI [10]: > 56.4 µM | GI50 [11]: 7.97 µM | TGI [11]: 26.8 µM | GI50 [12]: 9.59 µM | TGI [12]: 31.7 µM | GI50 [13]: 9.18 µM | TGI [13]: 22.3 µM | GI50 [14]: 3.67 µM | TGI [14]: 14.2 µM | GI50 [15]: 5.61 µM | TGI [15]: > 57.2 µM | GI50 [16]: 8.04 µM | TGI [16]: 22.6 µM | GI50 [17]: 30 µM | TGI [17]: > 100000 nM | GI50 [18]: 4.58 µM | TGI [18]: 22.6 µM | GI50 [19]: 12.7 µM | TGI [19]: 25.8 µM | GI50 [20]: 3.66 µM | TGI [20]: 28.1 µM | GI50 [21]: 21 µM | TGI [21]: > 65.3 µM | GI50 [22]: 2090 nM | TGI [22]: 5.34 µM | GI50 [23]: 3550 nM | TGI [23]: 13.1 µM | GI50 [24]: 4320 nM | TGI [24]: 17.9 µM | GI50 [25]: 6.24 µM | TGI [25]: 20.1 µM | GI50 [26]: 1400 nM | TGI [26]: 12.5 µM | GI50 [27]: 9.93 µM | TGI [27]: > 67.6 µM | GI50 [28]: 1690 nM | TGI [28]: 6.5 µM | GI50 [29]: 3.21 µM | TGI [29]: 14.5 µM | GI50 [30]: 2120 nM | TGI [30]: > 100000 nM | GI50 [31]: 5.72 µM | TGI [31]: 18.7 µM | GI50 [32]: 2100 nM | TGI [32]: > 100 µM | GI50 [33]: 13.5 µM | TGI [33]: 36.3 µM | GI50 [34]: 3.03 µM | TGI [34]: 14.7 µM | GI50 [35]: 8.41 µM | TGI [35]: 20.8 µM | GI50 [36]: 4.7 µM | TGI [36]: 16 µM | GI50 [37]: 1070 nM | TGI [37]: 2480 nM | GI50 [38]: 5270 nM | TGI [38]: 21.1 µM | GI50 [39]: 703 nM | TGI [39]: > 100 µM | GI50 [40]: 17.1 µM | TGI [40]: > 100000 nM | GI50 [41]: 3.28 µM | TGI [41]: 11.7 µM | GI50 [42]: 4.32 µM | TGI [42]: 16.4 µM | GI50 [43]: 19.3 µM | TGI [43]: 54.3 µM | GI50 [44]: 2120 nM | TGI [44]: 6.32 µM | GI50 [45]: 11.1 µM | TGI [45]: 39.6 µM | GI50 [46]: 5240 nM | TGI [46]: 17.4 µM | GI50 [47]: 4020 nM | TGI [47]: 14.4 µM | GI50 [48]: 4580 nM | TGI [48]: 16.9 µM | GI50 [49]: 2470 nM | TGI [49]: 6.31 µM | GI50 [50]: 3.37 µM | TGI [50]: 43.7 µM | GI50 [51]: 5730 nM | TGI [51]: > 52700 nM | GI50 [52]: 3.64 µM | TGI [52]: 25.2 µM | GI50 [53]: 4880 nM | TGI [53]: 91.9 µM | GI50 [54]: 1770 nM | TGI [54]: 10.8 µM | GI50 [55]: 3.4 µM | TGI [55]: 29.4 µM | GI50 [56]: 11.5 µM | TGI [56]: 24.7 µM

CCN(Cc1ccc(Cl)c(Cl)c1)c1ccc2nc(N)nc(N)c2c1C
GI50 [1]: 148 nM | TGI [1]: 1690 nM | GI50 [2]: < 0.0237 µM | TGI [2]: 0.802 µM | GI50 [4]: 240 nM | TGI [4]: 1.82 µM | GI50 [5]: 37.8 nM | TGI [5]: 1820 nM | GI50 [6]: 25.2 nM | TGI [6]: 6.3 µM | GI50 [7]: 28.4 nM | TGI [7]: 3.16 µM | GI50 [57]: 195 nM | TGI [57]: 2540 nM | GI50 [8]: < 10 nM | TGI [8]: 1600 nM | GI50 [9]: 1050 nM | TGI [9]: 16.1 µM | GI50 [11]: 0.0284 µM | TGI [11]: 1.49 µM | TGI [12]: 2.82 µM | GI50 [13]: < 0.01 µM | TGI [13]: 1.27 µM | GI50 [14]: < 0.01 µM | TGI [14]: 1.78 µM | GI50 [17]: 0.172 µM | TGI [17]: 2220 nM | GI50 [19]: 0.296 µM | TGI [19]: 7.27 µM | GI50 [21]: 0.96 µM | TGI [21]: 4.3 µM | GI50 [22]: 1170 nM | TGI [22]: 2.6 µM | GI50 [23]: 54.4 nM | TGI [23]: 2 µM | GI50 [24]: 209 nM | TGI [24]: 2.13 µM | GI50 [25]: < 0.01 µM | TGI [25]: 1.49 µM | GI50 [26]: < 10 nM | TGI [26]: 1.51 µM | GI50 [28]: 670 nM | TGI [28]: 2.71 µM | GI50 [29]: < 0.01 µM | TGI [29]: 1.58 µM | GI50 [30]: 96.8 nM | TGI [30]: 2830 nM | GI50 [31]: < 0.01 µM | TGI [31]: 1.45 µM | GI50 [33]: 1.48 µM | TGI [33]: 3.02 µM | GI50 [35]: 0.0753 µM | TGI [35]: 1.91 µM | GI50 [38]: 35.1 nM | TGI [38]: 1.69 µM | GI50 [40]: 0.0141 µM | TGI [40]: 1510 nM | GI50 [42]: < 0.01 µM | TGI [42]: 1.63 µM | GI50 [43]: 0.0695 µM | TGI [43]: 1.48 µM | GI50 [45]: 0.0945 µM | TGI [45]: 2.01 µM | GI50 [46]: 45.7 nM | TGI [46]: 1.64 µM | GI50 [47]: 48 nM | TGI [47]: 1.67 µM | GI50 [48]: 39 nM | TGI [48]: 1.24 µM | GI50 [49]: 157 nM | TGI [49]: 1.83 µM | GI50 [50]: < 0.01 µM | GI50 [51]: 10.4 nM | TGI [51]: 1630 nM | GI50 [52]: < 0.01 µM | TGI [52]: 1.47 µM | GI50 [53]: 785 nM | TGI [53]: 3.63 µM | GI50 [54]: 18.9 nM | TGI [54]: 1.52 µM | GI50 [55]: < 0.01 µM | TGI [55]: 1.27 µM | GI50 [56]: 1.25 µM | TGI [56]: 2.72 µM
